Data set [1] concerns cervical cancer cell line (HeLa). The format is cell-based, human. The settings on record: 24 h. The text has this: (§1) Five peptides were randomly selected from the candidate ACPs and synthesized by Changzhou Kanglong Biotech Ltd (Changzhou, China). using 9-fuorenylmethoxy carbonyl (FMOC) solid phase synthesis technology. The synthetic peptide was identified by mass spectrometry (MS), and the purity >95% by high performance liquid chromatography (HPLC). Human breast cancer cell line (MCF7), lung cancer cell line (A549), cervical cancer cell line (HeLa), colorectal adenocarcinoma cell line (LoVo) and human embryonic kidney cells (293T) were preserved in our laboratory. At 37 °C under 5/95% CO2/air condition, all cell lines were cultured in Dulbecco’s modified Eagle medium (DMEM) supplemented with 10% (v/v) fetal bovine serum (FBS, Gibco, Carlsbad, CA, USA) and 1% (v/v) penicillin/streptomycin (Sangon Biotech, Shanghai, China).
(§2) Human tumor cell lines MCF7, A549, HeLa and LoVo were used as experimental materials to detect the anticancer activity of peptides by MTT assay. In addition, human embryonic kidney cells 293T were also included in the experiment to examine the safety of the peptide against non-cancerous cells. […] Untreated cells as negative control group incubated with corresponding medium for 24 h. Subsequently, 10 uL, 5 mg/mL MTT (Sangon Biotech, Shanghai, China) solution was added to each well and incubated for 4 h at 37 °C. After the medium was discarded, 150 μL DMSO was added to each well for 10 min to dissolve formazan crystals. Absorbance was measured at 570 and 630 nm using a multiwall plate reader and the inhibition rate was expressed as the mean ± standard deviation (SD) of the triplicate data.

The subject of data set [2] is colorectal adenocarcinoma cell line (LoVo). The format is cell-based, human. The settings on record: 24 h.
Excerpt: as §1, §2

Data set [3] deals with lung cancer cell line (A549). The format is cell-based, human. The settings on record: for IC50 / killing effects on lung cancer cell A549 (in words): 24 h; for killing effects on lung cancer cell A549 (in words): MTT, anticancer activity when IC50 less than 50 μM; for selective killing effect on lung cancer A549 cells relative to 293T cells (in words): A549 versus 293T, MTT IC50.
Excerpt: as §1, §2

Data set [4] relates to Human breast cancer cell line (MCF7). In kind it is cell-based. The settings on record: 24 h.
Excerpt: as §1, §2

For data set [5], the system named is human embryonic kidney cells (293T). The data set is described as follows: MTT assay on non-cancerous cells, 293T. In kind it is cell-based. The settings on record: 24 h; for toxicity to 293T cells (in words): low toxicity when the IC50 value exceeded 50 μM, MTT.
Excerpt: as §1, §2

Bridge positions count the residues as written; N and C are the ends. Peptide text beside a SMILES is read from it.

Consider `CC[C@H](C)[C@H](NC(=O)CN)C(=O)N[C@@H](Cc1ccccc1)C(=O)N[C@@H](CC(=O)O)C(=O)N[C@H](C(=O)N[C@H](C(=O)N[C@@H](CCCCN)C(=O)NCC(=O)N[C@H](C(=O)N[C@@H](CC(C)C)C(=O)N[C@@H](CCCCN)C(=O)NCC(=O)N[C@H](C(=O)NCC(=O)N[C@@H](CCCCN)C(=O)N[C@@H](CC(N)=O)C(=O)N[C@H](C(=O)N[C@@H](C)C(=O)NCC(=O)N[C@@H](CO)C(=O)N[C@@H](CC(C)C)C(=O)N[C@@H](CC(C)C)C(=O)N[C@@H](CCC(=O)O)C(=O)N[C@@H](CCC(N)=O)C(=O)N[C@@H](CC(C)C)C(=O)N[C@@H](CCCCN)C(=O)N[C@H]1CSSC[C@@H](C(=O)O)NC(=O)CNC(=O)CNC(=O)[C@H](CO)NC(=O)[C@H](CC(C)C)NC(=O)[C@H](CCCCN)NC1=O)C(C)C)C(C)C)C(C)C)C(C)C)C(C)C` [Brevinin-2DYd] (H-GIFDVVKGVLKGVGKNVAGSLLEQLKCKLSGGC-OH; disulfide 27-33; N-terminus and C-terminus assumed), for which the IC50 in data set [1] stood at 19.7 µM; in data set [2], 8.05 µM; in data set [3], 2.98 µM; in data set [4], 25.7 µM; in data set [5], 5.83 µM. Further, in data set [3], the “killing effects on lung cancer cell A549 (in words)” value (shortened to “killing effects”) is on record as “effective killing effects”. Moreover, in data set [5], the “toxicity to 293T cells (in words)” value is “highest toxicity”.
For `CC[C@H](C)[C@H](NC(=O)CN)C(=O)N[C@@H](CC(C)C)C(=O)N[C@@H](CO)C(=O)N[C@@H](CO)C(=O)N[C@H](C(=O)N[C@@H](CCCCN)C(=O)NCC(=O)N[C@H](C(=O)N[C@@H](C)C(=O)N[C@@H](CCCCN)C(=O)NCC(=O)N[C@H](C(=O)N[C@@H](C)C(=O)N[C@@H](CCCCN)C(=O)N[C@@H](CC(N)=O)C(=O)N[C@H](C(=O)N[C@@H](C)C(=O)N[C@@H](C)C(=O)N[C@@H](CCC(N)=O)C(=O)N[C@@H](CC(C)C)C(=O)N[C@@H](CC(C)C)C(=O)N[C@@H](CC(=O)O)C(=O)N[C@H](C(=O)N[C@@H](CC(C)C)C(=O)N[C@@H](CCCCN)C(=O)N[C@H]1CSSC[C@@H](C(=O)O)NC(=O)CNC(=O)[C@H]([C@@H](C)O)NC(=O)[C@H]([C@@H](C)CC)NC(=O)[C@H](CCCCN)NC1=O)[C@@H](C)O)C(C)C)C(C)C)C(C)C)[C@@H](C)CC` [RANATUERIN-2Lb] (H-GILSSIKGVAKGVAKNVAAQLLDTLKCKITGC-OH; disulfide 27-32; N-terminus and C-terminus assumed), the IC50 in data set [1] was determined as 37.2 µM; in data set [2], 59.8 µM; in data set [3], 15.3 µM; in data set [4], 45.2 µM; in data set [5], 63.2 µM. Moreover, the “selective killing effect on lung cancer A549 cells relative to 293T cells (in words)” value in data set [3] is “selective killing effect”. Besides, in data set [3], the “killing effects” value was “effective killing effects”. Further, the “toxicity to 293T cells (in words)” value in data set [5] is listed as “low toxicity”.
Turning to `CC(C)C[C@H](NC(=O)CN)C(=O)N[C@@H](Cc1ccccc1)C(=O)N[C@@H](CC(=O)O)C(=O)N[C@H](C(=O)N[C@H](C(=O)N[C@@H](CCCCN)C(=O)NCC(=O)N[C@H](C(=O)N[C@@H](CC(C)C)C(=O)N[C@@H](CCCCN)C(=O)NCC(=O)N[C@@H](C)C(=O)NCC(=O)N[C@@H](CCCCN)C(=O)N[C@@H](CC(N)=O)C(=O)N[C@H](C(=O)N[C@@H](C)C(=O)NCC(=O)N[C@@H](CO)C(=O)N[C@@H](CC(C)C)C(=O)N[C@@H](CC(C)C)C(=O)N[C@@H](CCC(=O)O)C(=O)N[C@@H](CCC(N)=O)C(=O)N[C@@H](CC(C)C)C(=O)N[C@@H](CCCCN)C(=O)N[C@H]1CSSC[C@@H](C(=O)O)NC(=O)CNC(=O)CNC(=O)[C@H](CO)NC(=O)[C@H](CC(C)C)NC(=O)[C@H](CCCCN)NC1=O)C(C)C)C(C)C)C(C)C)C(C)C` [Brevinin-2DYb] (H-GLFDVVKGVLKGAGKNVAGSLLEQLKCKLSGGC-OH; disulfide 27-33; N-terminus and C-terminus assumed), the IC50 in data set [1] came to 23.3 µM; in data set [2], 35.1 µM; in data set [3] it was 24 µM; in data set [4], 37.8 µM; in data set [5], 50.7 µM. The “selective killing effect on lung cancer A549 cells relative to 293T cells (in words)” value in data set [3] is listed as “selective killing effect”. Further, the “killing effects” value in data set [3] is given as “effective killing effects”. In addition, the “toxicity to 293T cells (in words)” value in data set [5] is “low toxicity”.
As for `CC[C@H](C)[C@@H]1NC(=O)[C@H](CCCCN)NC(=O)[C@@H](NC(=O)[C@H](CCCCN)NC(=O)[C@H](CC(C)C)NC(=O)CNC(=O)[C@H](CCC(=O)O)NC(=O)[C@H](CC(C)C)NC(=O)[C@H](CCCCN)NC(=O)CNC(=O)[C@H](C)NC(=O)[C@@H](NC(=O)[C@H](CC(=O)O)NC(=O)[C@H](CCCCN)NC(=O)[C@H](C)NC(=O)[C@H](C)NC(=O)CNC(=O)[C@H](CCCCN)NC(=O)[C@H](CC(C)C)NC(=O)[C@@H](NC(=O)[C@H](CC(=O)O)NC(=O)[C@H](CC(C)C)NC(=O)[C@H](Cc2ccccc2)NC(=O)[C@H](CC(C)C)NC(=O)CN)[C@@H](C)O)C(C)C)CSSC[C@@H](C(=O)N[C@@H](CCCCN)C(=O)N[C@@H](CC(C)C)C(=O)N2CCC[C@H]2C(=O)O)NC(=O)CNC(=O)[C@H]([C@@H](C)O)NC1=O` [RANATUERIN2] (H-GLFLDTLKGAAKDVAGKLEGLKCKITGCKLP-OH; disulfide 23-28; N-terminus and C-terminus assumed), the IC50 in data set [1], in data set [3], in data set [4] and in data set [5] was greater than 128 µM throughout. Moreover, the “toxicity to 293T cells (in words)” value in data set [5] is recorded as “low toxicity”.

As usually defined, the IC50 is the point on the concentration scale where inhibition reaches its midpoint. The low end stands for greater potency in that assay, the high end for weaker potency in that assay.
